Data reported in patent US9062002B2, “Substituted pyridine derivatives as FabI inhibitors” (Aurigene Discovery Technologies Limited, priority 2011, dated 2015).
In brackets after ≈: the same amount, converted by molar mass.

How the values were obtained:
[1] = tested on: MRSE; experiment: MIC by broth microdilution method; type: cell-based; conditions: Staphylococcus epidermidis, MRSA / MRSE; MRSE, broth microdilution; read-out: MIC Vs MRSA (μg/ml) MRSE
[2] = Metabolic stability study in mouse liver microsomes; type: in vitro ADME; conditions: 1 μM, 37° C.
Method: The above selected compounds have protected mice from infection at ED50 doses. Metabolic Stability Study: In vitro metabolic stability of the compounds was done in mouse liver microsomes prepared in house as per standard protocol. Compounds were tested at 1 μM concentration. Compounds were incubated for 15 and 60 minutes at 37° C. with 100 rpm in shaker bath. After the incubation samples were analysed by LC/MS (API-4000). Respective control (Propranalol) was included in the study.

[3] = tested on: MRSA; experiment: MIC by broth microdilution method; type: cell-based; conditions: Staphylococcus aureus; MRSA, broth microdilution; read-out: MIC Vs MRSA (μg/ml) MRSA
[4] = tested on: MSSA; experiment: MIC by broth microdilution method; type: cell-based; conditions: Staphylococcus aureus, MRSA / MSSA; MSSA, broth microdilution; read-out: MIC Vs MRSA (μg/ml) MSSA
[5] = tested on: Fab I; conditions: 1 μM compound

Structure (SMILES) | MIC [1] | Percentage of compound remained after 15 min [2] | Percentage of compound remained after 60 min [2] | MIC [3] | MIC [4] | FAB-I inhibition %@1 μM [5]
CC(=O)Nc1ccc(/C=C/C(=O)N2CC=C(Cc3cccs3)CC2)cn1 [Compound 88, (E)-N-(5-(3-oxo-3-(4-(thiophen-2-ylmethyl)-5,6-dihydropyridin-1(2H)-yl)prop-1-en-1-yl)pyridin-2-yl)acetamide] | > 128 µg/mL | 11.1% | 5.5% | > 128 µg/mL | > 128 µg/mL | 87%
CN1CC(=O)Nc2ncc(/C=C/C(=O)N3CC=C(Cc4cccs4)CC3)cc2C1 [Compound 93, (E)-4-methyl-7-(3-oxo-3-(4-(thiophen-2-ylmethyl)-5,6-dihydropyridin-1(2H)-yl)prop-1-en-1-yl)-4,5-dihydro-1H-pyrido[2,3-e][1,4]diazepin-2(3H)-one] | 1 µg/mL (≈ 2.45 µM) | 16.1% | 1.1% | 0.5 µg/mL (≈ 1.22 µM) | 0.5 µg/mL (≈ 1.22 µM) | 93%
